Residue numbers refer to the chain shown, from its start. “And” between values parts separate entries of the source, which are not always exact repeats. Equal values may be shown once.
Experiments:
PfCRT variant F319A = test: CQ uptake assay, oocytes expressing F319A; type: cell-based, Plasmodium falciparum
Protocol: (§1) Site-directed mutagenesis of PfCRT^Dd2 was performed as described using the megaprimer method with overlap extension[21],[54]. The primer pairs used are listed in Supplementary Table 6. Please note that a codon-optimized and oocyte-adapted version of PfCRT^Dd2 was used[22] (Supplementary Fig. 16). The resulting DNA fragment was cloned into the SP64T expression vector and verified by sequencing.
(§2) Oocytes were obtained as described previously. Briefly, adult (>2 years old) female X. laevis frogs (NASCO) were anesthetized in a cooled solution of ethyl 3-amino benzoate methanesulfonate (0.1%, w/v), followed by a surgical removal of parts of the ovary. The ovary lobes were carefully dissected and small pieces of oocytes were incubated in Ca^2+-free ND96 buffer (96 mM NaCl, 2 mM KCl, 1 mM MgCl2 buffered with 5 mM HEPES/NaOH, pH 7.5) supplemented with collagenase D (0.1%, w/v; Roche), BSA (0.5%, w/v), and 9 mm Na2HPO4 at 18 °C for 14-16 h while gentle shaking. After incubation, the oocytes were carefully washed several times with ND96 buffer (96 mM NaCl, 2 mM KCl, 1.8 mM CaCl2, 1 mM MgCl2 buffered with 5 mM HEPES/NaOH, pH 7.5) supplemented with 100 mg l^−1 gentamycin). Defolliculated and healthy-looking stage V-VI oocytes were manually selected for RNA microinjection. The RNA was generated as following: The codon-optimized sequences of PfCRT variants were cloned into the pSP64T expression vector. After vector linearization using the restriction endonucleases BamHI or SalI (New England Biolabs), transcription was performed using the in vitro SP6 mMessage mMachine Kit (Ambion)[34]. The obtained RNA was kept at −80 °C and diluted with nuclease-free water to a concentration of 0.6 μg μl^−1. Precision-bore glass capillary tubes (3.5-inch glass capillaries; Drummond Scientific Co.) were pulled on a vertical puller (P-87 Flaming/Brown micropipette puller, Sutter Instrument Co.), graduated, and placed on a microinjector (Nanoject II Auto-Nanoliter Injector, Drummond Scientific Co.). 50 nl of nuclease-free water alone (control oocytes) or 50 nl of 0.6 μg μl^−1 RNA were injected under stereomicroscopic control. Injected oocytes were incubated for 46–72 h at 18 °C with twice-daily buffer changes before usage in experiments.
Drug uptake assays were performed as described previously[21],[22],[24],[34]. […] The direction of radio-labeled drug transport is here from the mostly acidic extracellular solution (pH 4.5 or 6.0, as indicated) into the oocyte cytosol (pH ∼ 7.2), which corresponds to the efflux of drug from the acidic digestive vacuole (pH 5.2) into the parasite cytoplasm (pH 7.2). The topology of PfCRT in the oolemma is such that both the N- and C-terminus face the extracellular milieu[3],[22]. In the parasite, the N- and C-terminus face the lumen of the digestive vacuole. CQ uptake kinetics were performed by incubating oocytes in ND96 buffer adjusted to a pH of 4.5, 5.0, 5.5, or 6.0 and supplemented with 50 nM [^3H]CQ and one of 7 different CQ concentrations (10 µM, 50 µM, 100 µM, 200 µM, 300 µM, 400 µM, 500 µM CQ). The reaction was stopped at the 60 min time point, which is in the linear uptake range[22],[34] (Supplementary Fig. 17). […] The radioactivity of each sample was measured using a liquid scintillation analyzer Tri-Carb 4910 TR (PerkinElmer). Oocytes that were injected with water instead of RNA were analyzed in parallel, representing the uptake of a drug by diffusion and/or endogenous permeation pathways. […]

PfCRT variant E204A = target: T1, PfCRT variant E204A (Plasmodium falciparum, UniProt Q9N623, A220S/E204A/I356T/K76T/M74I/N326S/N75E/Q271E/R371I); test: CQ uptake assay, oocytes expressing E204A; type: cell-based
T1 sequence (Q9N623 1-424 M74I/N75E/K76T/E204A/A220S/Q271E/N326S/I356T/R371I): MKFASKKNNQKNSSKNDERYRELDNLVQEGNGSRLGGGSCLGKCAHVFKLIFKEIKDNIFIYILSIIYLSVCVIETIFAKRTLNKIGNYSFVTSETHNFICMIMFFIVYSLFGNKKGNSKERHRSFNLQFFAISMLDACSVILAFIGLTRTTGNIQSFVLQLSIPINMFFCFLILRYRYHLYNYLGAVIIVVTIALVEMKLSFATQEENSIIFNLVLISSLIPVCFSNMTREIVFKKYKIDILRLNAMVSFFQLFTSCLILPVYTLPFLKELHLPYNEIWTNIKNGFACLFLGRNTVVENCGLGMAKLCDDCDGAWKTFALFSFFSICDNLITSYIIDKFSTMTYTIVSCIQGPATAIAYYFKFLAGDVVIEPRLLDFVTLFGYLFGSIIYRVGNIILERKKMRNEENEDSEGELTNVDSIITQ
Protocol: as §1, §2
(§3) Drug uptake assays were performed as described previously[21],[22],[24],[34]. […] The direction of radio-labeled drug transport is here from the mostly acidic extracellular solution (pH 4.5 or 6.0, as indicated) into the oocyte cytosol (pH ∼ 7.2), which corresponds to the efflux of drug from the acidic digestive vacuole (pH 5.2) into the parasite cytoplasm (pH 7.2). The topology of PfCRT in the oolemma is such that both the N- and C-terminus face the extracellular milieu[3],[22]. In the parasite, the N- and C-terminus face the lumen of the digestive vacuole. CQ uptake kinetics were performed by incubating oocytes in ND96 buffer adjusted to a pH of 4.5, 5.0, 5.5, or 6.0 and supplemented with 50 nM [^3H]CQ and one of 7 different CQ concentrations (10 µM, 50 µM, 100 µM, 200 µM, 300 µM, 400 µM, 500 µM CQ). The reaction was stopped at the 60 min time point, which is in the linear uptake range[22],[34] (Supplementary Fig. 17). For determination of the amount of drug uptake for each oocyte, the reaction medium was removed and the oocytes were washed three times with 2 ml of ice-cold ND96 buffer. Each oocyte was individually transferred to a scintillation vial containing 5% sodium dodecyl sulfate (200 μl) for lysis. The radioactivity of each sample was measured using a liquid scintillation analyzer Tri-Carb 4910 TR (PerkinElmer). Oocytes that were injected with water instead of RNA were analyzed in parallel, representing the uptake of a drug by diffusion and/or endogenous permeation pathways. The resulting value represents the “background“ level of drug accumulation in oocytes (in-depth discussion in[22]). […]

PfCRT variant D137N = target: T2, PfCRT variant D137N (Plasmodium falciparum, UniProt Q9N623, A220S/D137N/I356T/K76T/M74I/N326S/N75E/Q271E/R371I); test: CQ uptake assay, oocytes expressing D137N; type: cell-based
T2 sequence (Q9N623 1-424 M74I/N75E/K76T/D137N/A220S/Q271E/N326S/I356T/R371I): T1 sequence (Q9N623 1-424 M74I/N75E/K76T/E204A/A220S/Q271E/N326S/I356T/R371I) with D137N, A204E
Protocol: as §1, §2, §3

[1] = F319A, 50 µM CQ, 1 h, mean ± SEM
[2] = pH 4.5, single replicates, Fig 1d left
[3] = pH 6.0, single replicates, Fig 1d left
[4] = E204A, 50 µM CQ, 1 h, mean ± SEM
[5] = D137N, 50 µM CQ, 1 h, mean ± SEM

CCN(CC)CCCC(C)Nc1ccnc2cc(Cl)ccc12 (centres unmarked) [CQ, chloroquine]
Activity at pH 4.5 (PfCRT variant F319A; [1]): 0.90 ± 0.25 pmol h-1 oocyte-1
Activity at pH 6.0 (PfCRT variant F319A; [1]): 3.64 ± 0.45 pmol h-1 oocyte-1
R-value (PfCRT variant F319A; F319A, CQ transport at pH 4.5 / pH 6.0): 0.26 ± 0.07
F319A transport activity pH 4.5 (PfCRT variant F319A; [2]): 0.43 pmol oocyte-1 h-1 and 1.48 pmol oocyte-1 h-1 and 0.80 pmol oocyte-1 h-1
F319A transport activity pH 6.0 (PfCRT variant F319A; [3]): 4.19 pmol oocyte-1 h-1 and 3.55 pmol oocyte-1 h-1 and 3.19 pmol oocyte-1 h-1
Activity at pH 4.5 (PfCRT variant E204A; [4]): 1.43 ± 0.06 pmol h-1 oocyte-1
Activity at pH 6.0 (PfCRT variant E204A; [4]): 2.98 ± 0.34 pmol h-1 oocyte-1
R-value (PfCRT variant E204A; E204A, CQ transport at pH 4.5 / pH 6.0): 0.51 ± 0.09
E204A transport activity pH 4.5 (PfCRT variant E204A; [2]): 1.57 pmol oocyte-1 h-1 and 1.35 pmol oocyte-1 h-1 and 1.36 pmol oocyte-1 h-1
E204A R-value (PfCRT variant E204A; pH 4.5 vs pH 6.0, Fig 1d left): 0.72 and 0.42 and 0.38
E204A transport activity pH 6.0 (PfCRT variant E204A; [3]): 2.18 pmol oocyte-1 h-1 and 3.22 pmol oocyte-1 h-1 and 3.54 pmol oocyte-1 h-1
Activity at pH 4.5 (PfCRT variant D137N; [5]): 0.57 ± 0.14 pmol h-1 oocyte-1
Activity at pH 6.0 (PfCRT variant D137N; [5]): 0.95 ± 0.18 pmol h-1 oocyte-1
R-value (PfCRT variant D137N; D137N, CQ transport at pH 4.5 / pH 6.0): 0.59 ± 0.04
D137N transport activity pH 4.5 (PfCRT variant D137N; [2]): 0.77 pmol oocyte-1 h-1 and 0.37 pmol oocyte-1 h-1 and 0.63 pmol oocyte-1 h-1
D137N R-value (PfCRT variant D137N; pH 4.5 vs pH 6.0, Fig 1d left): 0.64 and 0.53 and 0.59
D137N transport activity pH 6.0 (PfCRT variant D137N; [3]): 1.20 pmol oocyte-1 h-1 and 0.70 pmol oocyte-1 h-1 and 1.07 pmol oocyte-1 h-1

Source: paper PMC10349806 (Nature Communications, 2023)
